Reference: US11432549B2, “Carbamoyl triazolinone based herbicide combinations and method of use” (Arysta LifeScience Corporation, priority 2009, dated 2022)
Where two headings read alike, the source gives them in different places.

How the values were obtained:
Green Foxtail = assay: Ex 5/7 greenhouse spray, bleaching/injury ratings; type: in vivo; conditions: Green Foxtail
Procedure: (§1) Containers were watered as needed based on species and water usage. The greenhouse was heated to keep temperatures above 50° F. (10° C.) and ventilated as needed to keep temperatures below 100° F. (38° C.). Typical daytime temperatures in the greenhouse were 80-90° F. (27-32° C.) and nighttime temperatures were between 50-60° F. (10-16° C.). The soil employed was Promix BX potting soil. Overall moisture conditions were normal and the closest weather station was on-site. Conditions and equipment employed in this Example are tabulated below in Tables 5-1 and 5-2.
(§2) All containers were moved outdoors from the greenhouse and arranged in blocks by treatment for the herbicide applications. A single spray application was applied to each block containing four repetitions of each species for each treatment. Plants were then immediately returned to the greenhouse and irrigated with approximately ¼″ water 1-3 hrs after treatment with a hose end sprayer. Only the Poa plants were trimmed with scissors two days prior to treatment at a height of approximately 3 inches.
(§3) Referring to FIGS. 2A-B, 3A-C, 4A-C, and 5A-D, all ratings of injury or bleaching are based on a scale from 1 to 9. […] Any bleaching measurement 4 and above was considered unacceptable for desirable turf species. In injury measurements, 1 indicates no injury while 9 indicates a dead plant. Any injury measurement 4 and above was considered unacceptable for desirable turf species). Density correlates with percent cover where 1 indicates no grass while 9 indicates a full pot.
(§4) Replications employed include 4, Untreated treatments: 1, Design: Randomized Complete Block, Treatment units: US standard, Treated plot size Width: 4 feet, Treated plot size Length: 4 feet, Application volume: 50 gal/ac, Mix size: 0.5562 liters, Mix overage: 100%, Format definitions: G-All7.DEF, G-All7.FRM.
(§5) In evaluating synergism, the data from Example 5 above were converted to % of control. This was done based on the data provided on a 1-9 scale detailed in Example 5. Expected values were computed from the % of control data by the formula for expected control=[…], where A is the % of control value for herbicide A alone and B is the % of control value for herbicide B alone.

Poa annua = assay: Ex 5/7 greenhouse spray, bleaching/injury ratings; type: in vivo; conditions: Poa
Procedure: as §1, §2
(§6) Transplanted tillering Kentucky Bluegrass was 5 to 6 months old, transplanted Poa annua was 5 to 6 months old. Tall fescue was seeded into the crabgrass pots. St. Augustine plants (Floratam and Saphire) were shipped from Port St. Lucie, Fla. Only two replicates of Saphire St. Augustine grass were used due to plant availability.
as §3, §4, §5

Crabgrass sp. = assay: Ex 5/7 greenhouse spray, bleaching/injury/density ratings; type: in vivo; conditions: Crabgrass
Procedure: as §1, §2, §6, §3, §4, §5

St. Augustine-Floratum = conditions: St. Augustine Floratam
Procedure: as §1, §2, §6, §3, §4, §5

St. Augustine-Sapphire = conditions: in vivo
Procedure: as §1, §2, §6, §3, §4, §5

Digitaria ciliaris = assay: Ex 1 pot test, visual % damage; type: in vivo
[1] = Days After First/Last Applic. 41 41, Trt-Eval Interval 31 DA-A

Q: For `CC(C)c1nn(C(=O)NC(C)(C)C)c(=O)n1N` [2 Amicarbazone], which Injury (Green Foxtail; 6 DA-A) is on record?
A: 1.5 f

Q: What about the Injury (Green Foxtail; 7 DA-A) of the same compound?
A: 1.5 c

Q: And the Bleaching (Green Foxtail; 10 DA-A)?
A: 1.0 c

Q: What about the Bleaching (Green Foxtail; 14 DA-A) of the same compound?
A: 1

Q: What about the Injury (Green Foxtail; 14 DA-A) of the same compound?
A: 1.3

Q: And the Bleaching (Green Foxtail; 16 DA-A)?
A: 1

Q: And the Injury (Green Foxtail; 16 DA-A)?
A: 1.8

Q: And the Bleaching (Green Foxtail; 20 DA-A)?
A: 1.3 c

Q: What about the Injury (Green Foxtail; 20 DA-A) of the same compound?
A: 1.8

Q: And the Injury (Green Foxtail; 24 DA-A)?
A: 2

Q: What about the Bleaching (Green Foxtail; 31 DA-A) of the same compound?
A: 3.0 a

Q: And the Injury (Green Foxtail; 31 DA-A)?
A: 2.8

Q: And the Bleaching (Poa annua; 6 DA-A)?
A: 1.0 a

Q: What about the Bleaching (Poa annua; 7 DA-A) of the same compound?
A: 1.0 a

Q: What about the Injury (Poa annua; 10 DA-A) of the same compound?
A: 1.0 e

Q: What about the Bleaching (Poa annua; 14 DA-A) of the same compound?
A: 1.0 b

Q: And the Injury (Poa annua; 14 DA-A)?
A: 1.8

Q: What about the Bleaching (Poa annua; 16 DA-A) of the same compound?
A: 1.0 b

Q: And the Injury (Poa annua; 16 DA-A)?
A: 2.5

Q: What about the Bleaching (Poa annua; 20 DA-A) of the same compound?
A: 1.0 a

Q: What about the Injury (Poa annua; 20 DA-A) of the same compound?
A: 2.5

Q: What about the Injury (Poa annua; 24 DA-A) of the same compound?
A: 2.5 cd

Q: What about the Injury (Poa annua; 31 DA-A) of the same compound?
A: 3.3 c

Q: What about the Injury (Poa annua; [1]) of the same compound?
A: 3.8 c

Q: And the Bleaching (Crabgrass sp.; 6 DA-A)?
A: 1.3 f

Q: And the Injury (Crabgrass sp.; 6 DA-A)?
A: 1.5

Q: And the Bleaching (Crabgrass sp.; 7 DA-A)?
A: 1.0 c

Q: What about the Injury (Crabgrass sp.; 7 DA-A) of the same compound?
A: 1.0 e

Q: What about the Bleaching (Crabgrass sp.; 10 DA-A) of the same compound?
A: 1.0 c

Q: What about the Bleaching (Crabgrass sp.; 14 DA-A) of the same compound?
A: 1.0 c

Q: And the Injury (Crabgrass sp.; 14 DA-A)?
A: 1

Q: What about the Bleaching (Crabgrass sp.; 16 DA-A) of the same compound?
A: 1.3 c

Q: And the Injury (Crabgrass sp.; 16 DA-A)?
A: 1.3

Q: What about the Bleaching (Crabgrass sp.; 20 DA-A) of the same compound?
A: 1.3

Q: And the Injury (Crabgrass sp.; 20 DA-A)?
A: 1.3 c

Q: And the “% Crab Cvr” value (Crabgrass sp.; 24 DA-A)?
A: 7.8 a %

Q: What about the Injury (Crabgrass sp.; 24 DA-A) of the same compound?
A: 1.5 c

Q: What about the “% Crab Cvr” value (Crabgrass sp.; 31 DA-A) of the same compound?
A: 8.3 a %

Q: And the Bleaching (Crabgrass sp.; 31 DA-A)?
A: 1.0 b

Q: What about the “% Crab Cvr” value (Crabgrass sp.; 41 DA-A) of the same compound?
A: 9.0 a %

Q: What about the Bleaching (Crabgrass sp.; 41 DA-A) of the same compound?
A: 1.0 a

Q: And the Bleaching (St. Augustine-Floratum; 6 DA-A)?
A: 1.0 a

Q: And the Bleaching (St. Augustine-Floratum; 7 DA-A)?
A: 1.0 c

Q: What about the Bleaching (St. Augustine-Floratum; 10 DA-A) of the same compound?
A: 1.0 c

Q: What about the Bleaching (St. Augustine-Floratum; 14 DA-A) of the same compound?
A: 1.0 c

Q: What about the Bleaching (St. Augustine-Floratum; 16 DA-A) of the same compound?
A: 1.0 e

Q: What about the Bleaching (St. Augustine-Floratum; 20 DA-A) of the same compound?
A: 1.0 b

Q: What about the Bleaching (St. Augustine-Floratum; 31 DA-A) of the same compound?
A: 1.0 c

Q: And the Bleaching (St. Augustine-Floratum; [1])?
A: 1.0 a

Q: What about the TurfQuality (St. Augustine-Floratum; [1]) of the same compound?
A: 6.8 bc

Q: What about the TurfQuality (St. Augustine-Sapphire) of the same compound?
A: 7.0 a

Q: Which Injury (Green Foxtail; 6 DA-A) does the source give for `CC(C)c1nn(C(=O)NC(C)(C)C)c(=O)n1N` [3 Amicarbazone] here?
A: 3.8 de

Q: What about the Injury (Green Foxtail; 7 DA-A) of the same compound?
A: 3.5 b

Q: What about the Bleaching (Green Foxtail; 10 DA-A) of the same compound?
A: 1.0 c

Q: What about the Bleaching (Green Foxtail; 14 DA-A) of the same compound?
A: 1

Q: What about the Injury (Green Foxtail; 14 DA-A) of the same compound?
A: 2.5 f

Q: What about the Bleaching (Green Foxtail; 16 DA-A) of the same compound?
A: 1

Q: What about the Injury (Green Foxtail; 16 DA-A) of the same compound?
A: 2.8 cd

Q: What about the Bleaching (Green Foxtail; 20 DA-A) of the same compound?
A: 1.3 c

Q: And the Injury (Green Foxtail; 20 DA-A)?
A: 3.5 cd

Q: What about the Injury (Green Foxtail; 24 DA-A) of the same compound?
A: 3.8 c

Q: And the Bleaching (Green Foxtail; 31 DA-A)?
A: 3.3 a

Q: What about the Injury (Green Foxtail; 31 DA-A) of the same compound?
A: 5.3 bc

Q: And the Bleaching (Poa annua; 6 DA-A)?
A: 1.0 a

Q: What about the Bleaching (Poa annua; 7 DA-A) of the same compound?
A: 1.0 a

Q: And the Injury (Poa annua; 10 DA-A)?
A: 3.5 bc

Q: What about the Bleaching (Poa annua; 14 DA-A) of the same compound?
A: 1.8 b

Q: What about the Injury (Poa annua; 14 DA-A) of the same compound?
A: 4.8 b

Q: What about the Bleaching (Poa annua; 16 DA-A) of the same compound?
A: 2.0 ab

Q: What about the Injury (Poa annua; 16 DA-A) of the same compound?
A: 5.0 bc

Q: And the Bleaching (Poa annua; 20 DA-A)?
A: 2.0 a

Q: What about the Injury (Poa annua; 20 DA-A) of the same compound?
A: 5.5 c

Q: What about the Injury (Poa annua; 24 DA-A) of the same compound?
A: 5.3 b

Q: What about the Injury (Poa annua; 31 DA-A) of the same compound?
A: 7.0 ab

Q: What about the Injury (Poa annua; [1]) of the same compound?
A: 7.5 ab

Q: What about the Bleaching (Crabgrass sp.; 6 DA-A) of the same compound?
A: 1.0 f

Q: And the Injury (Crabgrass sp.; 6 DA-A)?
A: 1

Q: And the Bleaching (Crabgrass sp.; 7 DA-A)?
A: 1.0 c

Q: What about the Injury (Crabgrass sp.; 7 DA-A) of the same compound?
A: 1.0 e

Q: And the Bleaching (Crabgrass sp.; 10 DA-A)?
A: 1.0 c

Q: And the Bleaching (Crabgrass sp.; 14 DA-A)?
A: 1.0 c

Q: What about the Injury (Crabgrass sp.; 14 DA-A) of the same compound?
A: 1

Q: And the Bleaching (Crabgrass sp.; 16 DA-A)?
A: 1.0 c

Q: What about the Injury (Crabgrass sp.; 16 DA-A) of the same compound?
A: 1.5

Q: What about the Bleaching (Crabgrass sp.; 20 DA-A) of the same compound?
A: 1

Q: And the Injury (Crabgrass sp.; 20 DA-A)?
A: 1.5 c

Q: What about the “% Crab Cvr” value (Crabgrass sp.; 24 DA-A) of the same compound?
A: 6.3 b %

Q: What about the Injury (Crabgrass sp.; 24 DA-A) of the same compound?
A: 1.5 c

Q: What about the “% Crab Cvr” value (Crabgrass sp.; 31 DA-A) of the same compound?
A: 6.3 b %

Q: What about the Bleaching (Crabgrass sp.; 31 DA-A) of the same compound?
A: 1.0 b

Q: What about the “% Crab Cvr” value (Crabgrass sp.; 41 DA-A) of the same compound?
A: 6.8 b %

Q: What about the Bleaching (Crabgrass sp.; 41 DA-A) of the same compound?
A: 1.0 a

Q: What about the Bleaching (St. Augustine-Floratum; 6 DA-A) of the same compound?
A: 1.0 a

Q: And the Bleaching (St. Augustine-Floratum; 7 DA-A)?
A: 1.0 c

Q: What about the Bleaching (St. Augustine-Floratum; 10 DA-A) of the same compound?
A: 1.0 c

Q: What about the Bleaching (St. Augustine-Floratum; 14 DA-A) of the same compound?
A: 1.0 c

Q: What about the Bleaching (St. Augustine-Floratum; 16 DA-A) of the same compound?
A: 1.3 e

Q: What about the Bleaching (St. Augustine-Floratum; 20 DA-A) of the same compound?
A: 1.3 b

Q: What about the Bleaching (St. Augustine-Floratum; 31 DA-A) of the same compound?
A: 1.0 c

Q: What about the Bleaching (St. Augustine-Floratum; [1]) of the same compound?
A: 1.0 a

Q: And the TurfQuality (St. Augustine-Floratum; [1])?
A: 7.3 ab

Q: And the TurfQuality (St. Augustine-Sapphire)?
A: 7.5 a

Q: `CCc1cccc(C)c1N(COC(C)C)C(=O)CCl` [Propisochlor, 2-chloro-N-(2-ethyl-6-methylphenyl)-N-[(1-methylethoxy)methyl]acetamide] was tested. Which weeding effect index (Digitaria ciliaris; 5 DAT, all tested dose rate, one-leaf stage) did it give?
A: less than 50%

Q: And the percentage control (Digitaria ciliaris; single application 50 g/ha, 5 DAT)?
A: 28%

Q: What about the percentage control (Digitaria ciliaris; single application 50 g/ha, 8 DAT) of the same compound?
A: 70%

Q: And the percentage control (Digitaria ciliaris; single application 50 g/ha, 14 DAT)?
A: 76%

Q: And the percentage control (Digitaria ciliaris; single application 50 g/ha, 21 DAT)?
A: 88%

Q: And the percentage control (Digitaria ciliaris; single application 50 g/ha, 28 DAT)?
A: 82%

Q: And the percentage control (Digitaria ciliaris; single application 100 g/ha, 5 DAT)?
A: 42%

Q: And the percentage control (Digitaria ciliaris; single application 100 g/ha, 8 DAT)?
A: 78%

Q: What about the percentage control (Digitaria ciliaris; single application 100 g/ha, 14 DAT) of the same compound?
A: 86%

Q: What about the percentage control (Digitaria ciliaris; single application 100 g/ha, 21 DAT) of the same compound?
A: 94%

Q: What about the percentage control (Digitaria ciliaris; single application 100 g/ha, 28 DAT) of the same compound?
A: 92%

Q: What about the percentage control (Digitaria ciliaris; single application 200 g/ha, 5 DAT) of the same compound?
A: 44%

Q: And the percentage control (Digitaria ciliaris; single application 200 g/ha, 8 DAT)?
A: 80%

Q: And the percentage control (Digitaria ciliaris; single application 200 g/ha, 14 DAT)?
A: 90%

Q: What about the percentage control (Digitaria ciliaris; single application 200 g/ha, 21 DAT) of the same compound?
A: 98%

Q: And the percentage control (Digitaria ciliaris; single application 200 g/ha, 28 DAT)?
A: 98%
